According to patent publication US20240116985A1, “STAPLED PEPTIDES AND METHODS THEREOF” (priority 2020, published 2024):

The compounds below were run against T1, full-length beta-Catenin (Uniprot ID P35222) (Homo sapiens, UniProt P35222) (assay: Fluorescence polarization IC50 (beta-catenin / 5FAM-TCF4 10-53 competition)). Conditions: beta-Catenin FP IC50 (nM), fluorescence polarization.
T1 construct: 10 nM full-length beta-Catenin (Uniprot ID P35222)
T1 sequence (P35222 1-781): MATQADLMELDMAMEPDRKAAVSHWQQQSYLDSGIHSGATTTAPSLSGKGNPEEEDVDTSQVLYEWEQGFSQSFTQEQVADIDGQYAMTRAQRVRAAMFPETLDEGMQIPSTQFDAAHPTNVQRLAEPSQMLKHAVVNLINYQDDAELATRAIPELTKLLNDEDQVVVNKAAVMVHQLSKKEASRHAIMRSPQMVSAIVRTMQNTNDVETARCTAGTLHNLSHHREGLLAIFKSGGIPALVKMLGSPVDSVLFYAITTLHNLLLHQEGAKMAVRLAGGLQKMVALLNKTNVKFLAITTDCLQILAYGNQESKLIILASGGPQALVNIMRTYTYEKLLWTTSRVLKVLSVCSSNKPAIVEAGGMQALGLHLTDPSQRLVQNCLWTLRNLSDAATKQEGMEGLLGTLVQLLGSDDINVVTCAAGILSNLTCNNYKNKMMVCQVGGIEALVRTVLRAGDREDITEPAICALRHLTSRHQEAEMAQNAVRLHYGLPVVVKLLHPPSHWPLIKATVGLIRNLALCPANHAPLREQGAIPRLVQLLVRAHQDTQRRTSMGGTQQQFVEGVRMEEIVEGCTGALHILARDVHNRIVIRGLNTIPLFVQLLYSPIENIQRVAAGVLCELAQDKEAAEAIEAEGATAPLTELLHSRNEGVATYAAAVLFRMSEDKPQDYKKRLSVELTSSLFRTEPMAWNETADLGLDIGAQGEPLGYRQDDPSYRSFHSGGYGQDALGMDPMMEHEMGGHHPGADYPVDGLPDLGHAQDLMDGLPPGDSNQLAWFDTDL
Type: binding
For CC(=O)N1CCC[C@]12CC=CCCCC1(CCCC=CCCCOC(=O)N3CC[C@@](C(=O)N[C@@H](Cc4ccsc4)C(=O)N[C@@H](Cc4csc5ccccc45)C(=O)N[C@@H](CCC(N)=O)C(N)=O)(C3)NC(=O)[C@H](CC(C)C)NC(=O)[C@H](Cc3ccccc3)NC(=O)[C@H](C)NC(=O)[C@H](C)NC(=O)[C@H](CC(=O)OCCSSc3ccccc3)NC(=O)[C@H](CC(=O)O)NC1=O)NC(=O)[C@H](CC(C)(C)C)NC(=O)[C@H](CC(=O)O)NC2=O (stereo partly drawn) [I-1956, Ac-PL3-Asp-Npg-B5-Asp-[EtSSPh]AspE-Ala-Ala-Phe-Leu-PyrS2-3Thi-BztA-Gln-NH2], the IC50 was 849 nM.

Same assay, conditions: fluorescence polarization; read-out: beta-Catenin FP IC50
For CC(=O)N1CCC[C@]12CC=CCCCC1(CCCC=CCCCOC(=O)N3CC[C@@](C(=O)N[C@@H](Cc4ccsc4)C(=O)N[C@@H](Cc4csc5ccccc45)C(=O)N[C@@H](CCC(N)=O)C(N)=O)(C3)NC(=O)[C@H](CC(C)C)NC(=O)[C@H](Cc3ccccc3)NC(=O)[C@H](C)NC(=O)[C@H](C)NC(=O)[C@H](CC(=O)O)NC(=O)[C@H](CC(=O)OCCSSc3ccccn3)NC1=O)NC(=O)[C@H](CC(C)(C)C)NC(=O)[C@H](CC(=O)O)NC2=O (stereo partly drawn) [I-1950, Ac-PL3-Asp-Npg-B5-[EtSSpy]AspE-Asp-Ala-Ala-Phe-Leu-PyrS2-3Thi-BztA-Gln-NH2], the IC50 was 234 nM. Compound CCCCCCSSCCOC(=O)C[C@@H]1NC(=O)[C@]2(CC=CCCCC3(CCCC=CCCCOC(=O)N4CC[C@@](C(=O)N[C@@H](Cc5ccsc5)C(=O)N[C@@H](Cc5csc6ccccc56)C(=O)N[C@@H](CCC(N)=O)C(N)=O)(C4)NC(=O)[C@H](CC(C)C)NC(=O)[C@H](Cc4ccccc4)NC(=O)[C@H](C)NC(=O)[C@H](C)NC(=O)[C@H](CC(=O)O)NC(=O)[C@H](CC(=O)O)NC3=O)NC(=O)[C@H](CC(C)(C)C)NC1=O)CCCN2C(C)=O (stereo partly drawn) [I-1960, Ac-PL3-[EtSSHex]AspE-Npg-B5-Asp-Asp-Ala-Ala-Phe-Leu-PyrS2-3Thi-BztA-Gln-NH2] has an IC50 of 544 nM. Compound CCSSCCOC(=O)C[C@@H]1NC(=O)C2(CCCC=CCCCOC(=O)N3CC[C@@](C(=O)N[C@@H](Cc4ccsc4)C(=O)N[C@@H](Cc4csc5ccccc45)C(=O)N[C@@H](CCC(N)=O)C(N)=O)(C3)NC(=O)[C@H](CC(C)C)NC(=O)[C@H](Cc3ccccc3)NC(=O)[C@H](C)NC(=O)[C@H](C)NC(=O)[C@H](CC(=O)O)NC1=O)CCCC=CC[C@]1(CCCN1C(C)=O)C(=O)N[C@@H](CC(=O)O)C(=O)N[C@@H](CC(C)(C)C)C(=O)N2 (stereo partly drawn) [I-1964, Ac-PL3-Asp-Npg-B5-[EtSSEt]AspE-Asp-Ala-Ala-Phe-Leu-PyrS2-3Thi-BztA-Gln-NH2] has an IC50 of 738 nM. With CCSSCCOC(=O)CC[C@@H]1NC(=O)[C@H](CC(=O)O)NC(=O)C2(CCCC=CCCCOC(=O)N3CC[C@@](C(=O)N[C@@H](Cc4ccsc4)C(=O)N[C@@H](Cc4csc5ccccc45)C(=O)N[C@@H](CCC(N)=O)C(N)=O)(C3)NC(=O)[C@H](CC(C)C)NC(=O)[C@H](Cc3ccccc3)NC(=O)[C@H](C)NC(=O)[C@H](C)NC1=O)CCCC=CC[C@]1(CCCN1C(C)=O)C(=O)N[C@@H](CC(=O)O)C(=O)N[C@@H](CC(C)(C)C)C(=O)N2 (stereo partly drawn) [I-1966, Ac-PL3-Asp-Npg-B5-Asp-[EtSSEt]GluE-Ala-Ala-Phe-Leu-PyrS2-3Thi-BztA-Gln-NH2] the IC50 was 566 nM. Compound CC(=O)N1CCC[C@]12CC=CCCCC1(CCCC=CCCCOC(=O)N3CC[C@@](C(=O)N[C@@H](Cc4ccsc4)C(=O)N[C@@H](Cc4csc5ccccc45)C(=O)N[C@@H](CCC(N)=O)C(N)=O)(C3)NC(=O)[C@H](CC(C)C)NC(=O)[C@H](Cc3ccccc3)NC(=O)[C@H](C)NC(=O)[C@H](C)NC(=O)[C@H](CN3CCC[C@@H](C(=O)O)C3)NC(=O)[C@H](CC(=O)O)NC1=O)NC(=O)[C@H](CC(C)(C)C)NC(=O)[C@H](CC(=O)O)NC2=O (stereo partly drawn) [I-1967, Ac-PL3-Asp-Npg-B5-Asp-R3COOPipA-Ala-Ala-Phe-Leu-PyrS2-3Thi-BztA-Gln-NH2] has an IC50 of 14 nM. With CC(=O)N1CCC[C@]12CC=CCCCC1(CCCC=CCCCOC(=O)N3CC[C@@](C(=O)N[C@@H](Cc4ccsc4)C(=O)N[C@@H](Cc4csc5ccccc45)C(=O)N[C@@H](CCC(N)=O)C(N)=O)(C3)NC(=O)[C@H](CC(C)C)NC(=O)[C@H](Cc3ccccc3)NC(=O)[C@H](C)NC(=O)[C@H](C)NC(=O)[C@H](CN3CCCC[C@H]3C(=O)O)NC(=O)[C@H](CC(=O)O)NC1=O)NC(=O)[C@H](CC(C)(C)C)NC(=O)[C@H](CC(=O)O)NC2=O (stereo partly drawn) [I-1968, Ac-PL3-Asp-Npg-B5-Asp-S2COOPipA-Ala-Ala-Phe-Leu-PyrS2-3Thi-BztA-Gln-NH2] the IC50 was 29 nM. For CC(=O)N1CCC[C@]12CC=CCCCC1(CCCC=CCCCOC(=O)N3CC[C@@](C(=O)N[C@@H](Cc4ccsc4)C(=O)N[C@@H](Cc4csc5ccccc45)C(=O)N[C@@H](CCC(N)=O)C(N)=O)(C3)NC(=O)[C@H](CC(C)C)NC(=O)[C@H](Cc3ccccc3)NC(=O)[C@H](C)NC(=O)[C@H](C)NC(=O)[C@H](CN3CCCC[C@@H]3C(=O)O)NC(=O)[C@H](CC(=O)O)NC1=O)NC(=O)[C@H](CC(C)(C)C)NC(=O)[C@H](CC(=O)O)NC2=O (stereo partly drawn) [I-1969, Ac-PL3-Asp-Npg-B5-Asp-R2COOPipA-Ala-Ala-Phe-Leu-PyrS2-3Thi-BztA-Gln-NH2], the IC50 was 49 nM. CC(=O)N1CCC[C@]12CC=CCCC1(CCC=CCCOC(=O)N3CC[C@@](C(=O)N[C@@H](Cc4ccsc4)C(=O)N[C@@H](Cc4csc5ccccc45)C(=O)N[C@@H](CCC(N)=O)C(N)=O)(C3)NC(=O)[C@H](CC(C)C)NC(=O)[C@H](Cc3ccccc3)NC(=O)[C@H](C)NC(=O)[C@H](C)NC(=O)[C@H](CC(=O)O)NC(=O)[C@H](CC(=O)O)NC1=O)NC(=O)[C@H](CC(C)(C)C)NC(=O)[C@H](CC(=O)O)NC2=O (stereo partly drawn) [I-1970, Ac-PL3-Asp-Npg-B4-Asp-Asp-Ala-Ala-Phe-Leu-PyrS1-3Thi-BztA-Gln-NH2] gave an IC50 of 441 nM. Work on CC(=O)N1CCC[C@]12CC=CCCC1(CCC=CCCCOC(=O)N3CC[C@@](C(=O)N[C@@H](Cc4ccsc4)C(=O)N[C@@H](Cc4csc5ccccc45)C(=O)N[C@@H](CCC(N)=O)C(N)=O)(C3)NC(=O)[C@H](CC(C)C)NC(=O)[C@H](Cc3ccccc3)NC(=O)[C@H](C)NC(=O)[C@H](C)NC(=O)[C@H](CC(=O)O)NC(=O)[C@H](CC(=O)O)NC1=O)NC(=O)[C@H](CC(C)(C)C)NC(=O)[C@H](CC(=O)O)NC2=O (stereo partly drawn) [I-1971, Ac-PL3-Asp-Npg-B4-Asp-Asp-Ala-Ala-Phe-Leu-PyrS2-3Thi-BztA-Gln-NH2] yielded an IC50 of 475 nM. For CC(=O)N1CCC[C@]12CC=CCCC1(CCC=CCCCOC(=O)N3CC[C@@](C(=O)N[C@@H](Cc4ccsc4)C(=O)N[C@@H](Cc4csc5ccccc45)C(=O)N[C@@H](CCC(N)=O)C(N)=O)(C3)NC(=O)[C@H](CC(C)C)NC(=O)[C@H](Cc3ccccc3)NC(=O)[C@H](C)NC(=O)[C@H](C)NC(=O)[C@H](CC(=O)O)NC(=O)[C@H](CC(=O)O)NC1=O)NC(=O)[C@H](CC(C)(C)C)NC(=O)[C@H](CC(=O)O)NC2=O (stereo partly drawn) [I-1972, Ac-PL3-Asp-Npg-B4-Asp-Asp-Ala-Ala-Phe-Leu-PyrS2-3Thi-BztA-Gln-NH2], the IC50 was 689 nM. Work on CC(=O)N1CCC[C@]12CC=CCCC1(CCC=CCCCCOC(=O)N3CC[C@@](C(=O)N[C@@H](Cc4ccsc4)C(=O)N[C@@H](Cc4csc5ccccc45)C(=O)N[C@@H](CCC(N)=O)C(N)=O)(C3)NC(=O)[C@H](CC(C)C)NC(=O)[C@H](Cc3ccccc3)NC(=O)[C@H](C)NC(=O)[C@H](C)NC(=O)[C@H](CC(=O)O)NC(=O)[C@H](CC(=O)O)NC1=O)NC(=O)[C@H](CC(C)(C)C)NC(=O)[C@H](CC(=O)O)NC2=O (stereo partly drawn) [I-1973, Ac-PL3-Asp-Npg-B4-Asp-Asp-Ala-Ala-Phe-Leu-PyrS3-3Thi-BztA-Gln-NH2] yielded an IC50 of 797 nM.

Same assay, conditions: read-out: beta-Catenin FP IC50; fluorescence polarization
CC(=O)N1CCC[C@]12CC=CCCCC1(CCCC=CCCCOC(=O)N3CC[C@@](C(=O)N[C@@H](Cc4ccsc4)C(=O)N[C@@H](Cc4csc5ccccc45)C(=O)N[C@@H](CCC(N)=O)C(N)=O)(C3)NC(=O)[C@H](CC(C)C)NC(=O)[C@H](Cc3ccccc3)NC(=O)[C@H](C)NC(=O)[C@H](C)NC(=O)[C@H](CC(=O)O)NC(=O)[C@H](CC(=O)OCCSSc3ccccc3)NC1=O)NC(=O)[C@H](CC(C)(C)C)NC(=O)[C@H](CC(=O)O)NC2=O (stereo partly drawn) [I-1955, Ac-PL3-Asp-Npg-B5-[EtSSPh]AspE-Asp-Ala-Ala-Phe-Leu-PyrS2-3Thi-BztA-Gln-NH2] showed an IC50 of 1200 nM. CC(=O)N1CCC[C@]12CC=CCCCC1(CCCC=CCCCOC(=O)N3CC[C@@](C(=O)N[C@@H](Cc4ccsc4)C(=O)N[C@@H](Cc4csc5ccccc45)C(=O)N[C@@H](CCC(N)=O)C(N)=O)(C3)NC(=O)[C@H](CC(C)C)NC(=O)[C@H](Cc3ccccc3)NC(=O)[C@H](C)NC(=O)[C@H](C)NC(=O)[C@H](CCC(=O)OCCSSc3ccccc3)NC(=O)[C@H](CC(=O)O)NC1=O)NC(=O)[C@H](CC(C)(C)C)NC(=O)[C@H](CC(=O)O)NC2=O (stereo partly drawn) [I-1957, Ac-PL3-Asp-Npg-B5-Asp-[EtSSPh]GluE-Ala-Ala-Phe-Leu-PyrS2-3Thi-BztA-Gln-NH2] was tested, and the IC50 was 567 nM.
